Source: PubChem BioAssay AID2060899 (Molecular Pharmacology Branch, DTP, NCI, 2025)
Values belong to the compound of their own block, whether it stands above or below them.

Test system: 565726-208-R1-J5-PDC complex spheroids, growth inhibition
Assay: Anticancer human tumor 565726-208-R1-J5-PDC patient-derived pancreatic adenocarcinoma cell line growth inhibition [RAS]
Details: for IC50: curve of first compound; for viability, T/C: stronger effect = lower value
Procedure, shortened: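 Multi-cell-type spheroids: tumor cells plus HUVEC endothelial cells and mesenchymal stem cells. RAS-pathway inhibitors were combined with targeted agents, each dosed in half-log steps down from clinical Cmax, or from 10 microM when Cmax was unknown.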
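Note: spheroids exposed to compounds for seven days before readout.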
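Throughout, for viability, T/C: 100% = DMSO vehicle control viability.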

IC50 (second compound 0.000949 µM): > 1000 nM
IC50 (second compound 0.003 µM): > 1000 nM
IC50 (second compound 0.00949 µM): > 1000 nM
IC50 (second compound 0.03 µM): > 1000 nM
IC50 (second compound 0.0949 µM): > 1000 nM
IC50 (second compound 0.3 µM): > 1000 nM
SMILES: C=CC(=O)N1CCN(c2nc(OCC3CCCN3C)nc3c(F)c(-c4nc(N)cc(C)c4C(F)(F)F)c(Cl)cc23)C(C)C1 (centres undefined) + CCn1c(-c2cccnc2C(C)OC)c2c3cc(ccc31)N1CCOC(CC(NC(=O)C(C(C)C)N(C)C(=O)C3(F)CCN(C(=O)C#CC(C)(C)N(C)C)CC3)C(=O)N3CCCC(N3)C(=O)OCC(C)(C)C2)C1
viability, T/C (second compound 0.000949 µM, first compound 0.00316 µM): 99.3%
viability, T/C (second compound 0.000949 µM, first compound 0.01 µM): 98.6%
viability, T/C (second compound 0.000949 µM, first compound 0.0316 µM): 108%
viability, T/C (second compound 0.000949 µM, first compound 0.1 µM): 111%
viability, T/C (second compound 0.000949 µM, first compound 0.316 µM): 97%
viability, T/C (second compound 0.000949 µM, first compound 1 µM): 102%
viability, T/C (second compound 0.003 µM, first compound 0.00316 µM): 103%
viability, T/C (second compound 0.003 µM, first compound 0.01 µM): 109%
viability, T/C (second compound 0.003 µM, first compound 0.0316 µM): 105%
viability, T/C (second compound 0.003 µM, first compound 0.1 µM): 93.6%
viability, T/C (second compound 0.003 µM, first compound 0.316 µM): 96.9%
viability, T/C (second compound 0.003 µM, first compound 1 µM): 103%
viability, T/C (second compound 0.00949 µM, first compound 0.00316 µM): 106%
viability, T/C (second compound 0.00949 µM, first compound 0.01 µM): 112%
viability, T/C (second compound 0.00949 µM, first compound 0.0316 µM): 104%
viability, T/C (second compound 0.00949 µM, first compound 0.1 µM): 107%
viability, T/C (second compound 0.00949 µM, first compound 0.316 µM): 96.8%
viability, T/C (second compound 0.00949 µM, first compound 1 µM): 100%
viability, T/C (second compound 0.03 µM, first compound 0.00316 µM): 99.3%
viability, T/C (second compound 0.03 µM, first compound 0.01 µM): 97.7%
viability, T/C (second compound 0.03 µM, first compound 0.0316 µM): 111%
viability, T/C (second compound 0.03 µM, first compound 0.1 µM): 98.7%
viability, T/C (second compound 0.03 µM, first compound 0.316 µM): 98.6%
viability, T/C (second compound 0.03 µM, first compound 1 µM): 104%
viability, T/C (second compound 0.0949 µM, first compound 0.00316 µM): 97.1%
viability, T/C (second compound 0.0949 µM, first compound 0.01 µM): 109%
viability, T/C (second compound 0.0949 µM, first compound 0.0316 µM): 109%
viability, T/C (second compound 0.0949 µM, first compound 0.1 µM): 94.8%
viability, T/C (second compound 0.0949 µM, first compound 0.316 µM): 100%
viability, T/C (second compound 0.0949 µM, first compound 1 µM): 94.5%
viability, T/C (second compound 0.3 µM, first compound 0.00316 µM): 93.7%
viability, T/C (second compound 0.3 µM, first compound 0.01 µM): 79%
viability, T/C (second compound 0.3 µM, first compound 0.0316 µM): 96.7%
viability, T/C (second compound 0.3 µM, first compound 0.1 µM): 95.4%
viability, T/C (second compound 0.3 µM, first compound 0.316 µM): 90.3%
viability, T/C (second compound 0.3 µM, first compound 1 µM): 85.3%

IC50 (second compound 0.000949 µM): 3.9 nM
IC50 (second compound 0.003 µM): 4.09 nM
IC50 (second compound 0.00949 µM): 3.98 nM
IC50 (second compound 0.03 µM): 3.25 nM
IC50 (second compound 0.0949 µM): 2.54 nM
IC50 (second compound 0.3 µM): 1.09 nM
SMILES: CC1(C)CCC(Nc2ncc(C(F)(F)F)c(-c3c[nH]c4c(P(C)(C)=O)c(C#N)ccc34)n2)CN1 (centres undefined) + CCn1c(-c2cccnc2C(C)OC)c2c3cc(ccc31)N1CCOC(CC(NC(=O)C(C(C)C)N(C)C(=O)C3(F)CCN(C(=O)C#CC(C)(C)N(C)C)CC3)C(=O)N3CCCC(N3)C(=O)OCC(C)(C)C2)C1
viability, T/C (second compound 0.000949 µM, first compound 0.000949 µM): 86%
viability, T/C (second compound 0.000949 µM, first compound 0.003 µM): 54%
viability, T/C (second compound 0.000949 µM, first compound 0.00949 µM): 37.6%
viability, T/C (second compound 0.000949 µM, first compound 0.03 µM): 32.1%
viability, T/C (second compound 0.000949 µM, first compound 0.0949 µM): 32.2%
viability, T/C (second compound 0.000949 µM, first compound 0.3 µM): 29.5%
viability, T/C (second compound 0.003 µM, first compound 0.000949 µM): 89%
viability, T/C (second compound 0.003 µM, first compound 0.003 µM): 55%
viability, T/C (second compound 0.003 µM, first compound 0.00949 µM): 36.5%
viability, T/C (second compound 0.003 µM, first compound 0.03 µM): 29.2%
viability, T/C (second compound 0.003 µM, first compound 0.0949 µM): 29.5%
viability, T/C (second compound 0.003 µM, first compound 0.3 µM): 28.7%
viability, T/C (second compound 0.00949 µM, first compound 0.000949 µM): 83.2%
viability, T/C (second compound 0.00949 µM, first compound 0.003 µM): 55.4%
viability, T/C (second compound 0.00949 µM, first compound 0.00949 µM): 33.5%
viability, T/C (second compound 0.00949 µM, first compound 0.03 µM): 27.9%
viability, T/C (second compound 0.00949 µM, first compound 0.0949 µM): 26.9%
viability, T/C (second compound 0.00949 µM, first compound 0.3 µM): 27.6%
viability, T/C (second compound 0.03 µM, first compound 0.000949 µM): 76%
viability, T/C (second compound 0.03 µM, first compound 0.003 µM): 50.9%
viability, T/C (second compound 0.03 µM, first compound 0.00949 µM): 36.4%
viability, T/C (second compound 0.03 µM, first compound 0.03 µM): 29%
viability, T/C (second compound 0.03 µM, first compound 0.0949 µM): 28.6%
viability, T/C (second compound 0.03 µM, first compound 0.3 µM): 29.3%
viability, T/C (second compound 0.0949 µM, first compound 0.000949 µM): 69.3%
viability, T/C (second compound 0.0949 µM, first compound 0.003 µM): 46.7%
viability, T/C (second compound 0.0949 µM, first compound 0.00949 µM): 30%
viability, T/C (second compound 0.0949 µM, first compound 0.03 µM): 26.9%
viability, T/C (second compound 0.0949 µM, first compound 0.0949 µM): 29%
viability, T/C (second compound 0.0949 µM, first compound 0.3 µM): 32.9%
viability, T/C (second compound 0.3 µM, first compound 0.000949 µM): 52%
viability, T/C (second compound 0.3 µM, first compound 0.003 µM): 35.6%
viability, T/C (second compound 0.3 µM, first compound 0.00949 µM): 27.4%
viability, T/C (second compound 0.3 µM, first compound 0.03 µM): 26.7%
viability, T/C (second compound 0.3 µM, first compound 0.0949 µM): 27.8%
viability, T/C (second compound 0.3 µM, first compound 0.3 µM): 26.5%
